Results as given in PMC5454592, “Pharmacological and Toxicological Properties of the Potent Oral γ-Secretase Modulator BPN-15606” (The Journal of Pharmacology and Experimental Therapeutics, 2017).
“Also recorded” adds a separate entry of the source.

Assays:
[1] = PK in mouse (i.v./po); type: in vivo; conditions: male, plasma, CD-1 mice, 5 mg/kg po vs 1 mg/kg i.v.
Protocol: Male CD-1 mice and male Sprague–Dawley rats were administered a single dose of BPN-15606 by i.v. or oral gavage (po) dose routes to assess oral bioavailability. Mice and rats received BPN-15606 as a single i.v. dose at 1 mg/kg (n = 5) or a single po dose at 5 mg/kg (n = 5). Blood was collected from mice and rats at 5 (i.v. only), 15, and 30 minutes, and 1, 2, 4, 8, and 12 hours postdose for processing to plasma. For mice, brains were collected from both dose groups (i.v. and po) at 1, 4, 8, and 12 hours postdose. For rats, brains were collected from those same animals at the 12-hour time point only. […]
Data were subjected to noncompartmental analysis using WinNonlin Phoenix Model 200 (for extravascular administration) or Model 201 (for i.v. bolus administration) and the sparse sampling feature; a uniform weighting factor was applied to each data set. Time to maximum plasma concentration (Tmax) and maximum plasma concentration (Cmax) values were determined directly from the data. Area under the plasma concentration–time curve to the last time point (AUClast) values were calculated using the log/linear trapezoidal (i.v. dose) or linear up/log down trapezoidal (po dose). Values were calculated using the plasma data from composite groups. […] The volume of distribution at steady state and clearance were calculated using the i.v. group data. […]

[2] = system: HReN-mGAP AD ReN cells; experiment: CytoTox-ONE (lactate dehydrogenase) assay in 3D culture; type: cell-based; conditions: 70 nM; 1-week-old treated media
Protocol: HReN-mGAP AD ReN cell expression APP^Swedish/London and Presenilin 1^ΔE9 were previously described ([Choi et al., 2014]). The HReN-mGAP AD ReN cells were three-dimensional (3D)–differentiated for 7 weeks, as previously described ([Choi et al., 2014]). The cultures were then harvested and analyzed for the soluble (conditioned media) and insoluble Aβ40/42/38 and p-tau/tau levels, using Meso Scale Discovery electrochemiluminescence system. BPN-15606 (70 nM) and the same volume of DMSO controls were treated in the last 4 weeks. The potential toxicity of the drugs was monitored by CytoTox-ONE (lactate dehydrogenase) assay after 1 week of the treatments. At the end of the treatments, the soluble (media) and the insoluble fractions (5 M GuHCl-soluble extracts) were collected and analyzed for Aβ38, Aβ40, and Aβ42 with MSD enzyme-linked immunosorbent assay (ELISA; V-Plex 6E10 Aβ40/Aβ42/Aβ38 kit). The custom-made plates were used for detecting total tau (BT2; ThermoFisher Scientific, Sommerset, NJ) and pThr181 tau (At270; ThermoFisher Scientific, Sommerset, NJ). The insoluble fraction was dissolved in 5 M GuHCl, and pThr181 tau, total tau, Aβ40, Aβ42, and Aβ38 concentrations were determined by MSD ELISA. The levels of the control protein Tuj1 were determined by dot-blot analysis in the GuHCl lysates (data not shown).

[3] = system: Aβ42 and Aβ40 levels; experiment: Acute single-dose pharmacodynamics in mice; type: in vivo, C57BL/6J mice; conditions: single oral dose 25 mg/kg, C57BL/6 mice
Protocol: Male C57BL/6J mice (n = 5 per group) were administered a single dose of either vehicle (80% polyethylene glycol 400 v/v; 20% sterile water v/v and 0.1% Tween 20 v/v) or BPN-15606 (25 mg/kg) by po and sacrificed at 0.5, 1, 2, 4, 8, 12, and 24 hours following the dosing. Plasma and brain extracts were prepared, and Aβ peptides were quantitated as described previously ([Kounnas et al., 2010]). Statistical analysis was performed as described above for the repeat dosing studies.

[4] = system: Aβ42 and Aβ40 levels; experiment: Repeat-dose (7-day) efficacy study in mice; type: in vivo, C57BL/6J mice
Protocol: Male C57BL/6J mice (n = 10/dose level) and male Sprague–Dawley rats (n = 14/dose level) were administered either vehicle (80% polyethylene glycol 400 v/v; 20% sterile water v/v and 0.1% Tween 20 v/v) or BPN-15606 (10, 25, and 50 mg/kg) once daily po for 7 consecutive days (mice) or 5, 25, and 50 mg/kg once daily po for 9 consecutive days (rats). […] Animals were sacrificed 4 hours following the dosing on day 7 of the 7-day oral treatment course (mice) and on day 9 of the 9-day oral treatment course (rats). Plasma and brain extracts were prepared (mice and rats); CSF was aspirated from the cisterna magnum with minimal to no blood contamination (rats only); and tissues were frozen at −70°C. Aβ peptides were quantitated in brain extracts and plasma (mice) or CSF and plasma (rats), as described previously, using Meso Scale multiplex kits and the Meso Scale Sector Imager 6000 ([Kounnas et al., 2010]). Statistical analysis was performed using GraphPad Prism software, and results are expressed as mean ± S.E.M. Analysis of variance was used to detect a significant effect. Drug levels of BPN-15606 were measured in plasma and brain extracts using the bioanalytical methods detailed above.

[5] = system: bone marrow polychromatic erythrocytes; experiment: Bone marrow micronucleus assay in rats; type: in vivo; conditions: 7 days at 30 or 100 mg/kg
Protocol: The micronucleus component of this study was performed to evaluate the ability of BPN-15606 to induce chromosomal damage in bone marrow of male Sprague–Dawley rats. Rats (n = 5/group) were scheduled to receive single daily doses of BPN-15606 for 7 days at 30, 100, and 300 mg/kg/d (groups 2, 3, and 4, respectively), with euthanasia scheduled 24 hours after the final dose. Animals receiving 300 mg/kg/d were sacrificed in moribund condition on day 3 or 4 due to excessive toxicity, and micronucleus formation was not evaluated; all other treated animals survived to necropsy. Bone marrow samples collected from the low and mid dose groups (30 and 100 mg/kg) were evaluated for cytotoxicity and for micronucleus formation (see Supplemental Table 8). Three bone marrow smear slides were prepared per animal and fixed in absolute methanol. […] Two slides per animal were stained with acridine orange, coded, and evaluated (blind) using epifluorescence microscopy. […] The criteria employed for identifying and quantitating micronuclei are those described by [Schmid (1975)]. Two principal parameters were determined, as follows: 1) the number of PCE among 200 total red blood cells (RBC) per animal (PCE/RBC ratio), which provides an index of bone marrow cytotoxicity, and 2) the number of micronucleated RNA-positive PCE among a total of 2000 PCE per animal, which provides an index of chromosomal damage.

Structure (SMILES): COc1nc(-c2cc(C)c(N[C@@H](C)c3ccc(F)cc3)nn2)ccc1-n1cnc(C)c1 [BPN-15606, (S)-N-(1-(4-fluorophenyl)ethyl)-6-(6-methoxy-5-(4-methyl-1H-imidazol-1-yl)pyridin-2-yl)-4-methylpyridazin-3-amine]
- bioavailability [1]: > 60%
- toxicity (Cytotox cell death lactate dehydrogenase assay) [2]: did not induce any significant toxicity
- duration of effect on brain and plasma Aβ42 and Aβ40 levels [3]: ≥ 24 h
- onset of effect on brain and plasma Aβ42 and Aβ40 levels [3]: 30 to 60 min
- lowering of brain Aβ42 levels ([4]; mice, 10 mg/kg): ~40%
- lowering of brain Aβ42 levels ([4]; mice, 25 mg/kg): 70–75%
- lowering of plasma Aβ42 ([4]; mice, 25 mg/kg): > 90%
- clinical observations ([4]; mice, 10, 25, 50 mg/kg po daily for 7 days): all animals appeared normal throughout the study
- micronucleus induction in bone marrow (micronucleated PCE) [5]: did not induce micronuclei; also recorded: no statistically significant increase
- suppression of PCE among RBC in bone marrow [5]: no significant suppression
